Reference: publication PMC2363760, “A novel doxorubicin-glucuronide prodrug DOX-GA3 for tumour-selective chemotherapy: distribution and efficacy in experimental human ovarian cancer” (British Journal of Cancer, 2001)
Like-named read-outs stand apart in the source and are kept apart here.

Tests used:
[1] = Stability of DOX-GA3 in stored control tissue homogenates and serum samples; assay type: in vitro ADME; settings: up to 1 mM, up to 4 weeks at -20C (data not shown)
[2] = test system: OVCAR-3 xenografts; settings: for Weight loss / TD14 (tumour volume doubling time from a relative volume of 1 to 4) / Weight day 14: DOX 8 or DOX-GA3 500 mg kg-1 i.v. days 0,7; for GI % (maximum growth inhibition): DOX 8 or DOX-GA3 500 mg kg-1 i.v. weekly x 2
[3] = Maximum tolerated dose in OVCAR-3-bearing nude mice
[4] = test system: OVCAR-3 cells; experiment: In vitro antiproliferative effects in OVCAR-3 cells (sulforhodamine B, 72 h); assay type: cell-based, human; settings: for IC50: 72 h
[5] = target: T1, human β-glucuronidase (Homo sapiens, UniProt P08236); settings: pH 6.8, 37C, enzyme 1 g ml-1, 30 min, direct linear plots
T1 sequence (P08236 23-651): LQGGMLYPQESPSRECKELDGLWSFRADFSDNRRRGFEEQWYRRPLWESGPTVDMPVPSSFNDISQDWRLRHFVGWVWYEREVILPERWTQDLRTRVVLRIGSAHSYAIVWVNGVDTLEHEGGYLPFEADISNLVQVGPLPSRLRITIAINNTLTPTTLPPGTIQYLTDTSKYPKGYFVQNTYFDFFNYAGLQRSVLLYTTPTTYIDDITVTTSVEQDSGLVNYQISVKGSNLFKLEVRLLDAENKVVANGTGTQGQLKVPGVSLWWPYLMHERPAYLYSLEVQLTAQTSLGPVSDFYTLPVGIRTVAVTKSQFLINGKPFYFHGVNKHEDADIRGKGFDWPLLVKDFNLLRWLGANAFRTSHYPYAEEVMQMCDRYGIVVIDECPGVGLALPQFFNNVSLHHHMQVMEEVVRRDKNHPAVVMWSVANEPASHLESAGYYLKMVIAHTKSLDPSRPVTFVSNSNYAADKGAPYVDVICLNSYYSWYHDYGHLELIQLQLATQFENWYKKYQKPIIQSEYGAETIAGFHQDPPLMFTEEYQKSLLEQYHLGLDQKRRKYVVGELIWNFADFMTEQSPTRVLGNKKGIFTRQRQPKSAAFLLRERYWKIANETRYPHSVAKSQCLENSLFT

[6] = In vivo stability of the prodrug in non-tumour bearing mice; settings: DOX-GA3 250 mg kg-1, t = 30 min
[7] = test system: β-glucuronidase; settings: ref Tomino and Paigen, 1975; cited from earlier work
[8] = test system: β-glucuronidase; experiment: Inhibition of β-glucuronidase activity by saccharolactone in samples; assay type: biochemical; settings: 1 mM (data not shown)
[9] = DOX-GA3 250 mg kg-1 vs DOX 8 mg kg-1
[10] = after DOX 8 mg kg-1 or DOX-GA3 250 mg kg-1 i.v.

## COc1cccc2c1C(=O)c1c(O)c3c(c(O)c1C2=O)C[C@@](O)(C(=O)CO)C[C@@H]3O[C@H]1C[C@H](NC(=O)OCc2ccc(NC(=O)O[C@@H]3O[C@H](C(=O)O)[C@@H](O)[C@H](O)[C@H]3O)cc2)[C@H](O)[C@H](C)O1 [DOX-GA3, N -[4-doxorubicin-N -carbonyl (oxymethyl)phenyl] O -β-glucuronyl carbamate]
[1]
  activation to doxorubicin on storage: less than 0.1%
[2]; larger tumours (mean 400 mm3), 500 mg kg-1 i.v. weekly x 2
  specific growth delay (SGD): 3.9
[2]; larger tumours (mean 400 mm3)
  Weight loss: 9.6%
  GI % (maximum growth inhibition): 88%
[2]; larger tumours
  TD14 (tumour volume doubling time from a relative volume of 1 to 4): 75.1 days
  Weight day 14: 91.9%
[2]; small tumours (mean 125 mm3)
  Weight loss: 5.1%
  GI % (maximum growth inhibition): 87%
[2]; small tumours
  TD14 (tumour volume doubling time from a relative volume of 1 to 4): 32.4 days
  Weight day 14: 99.0%
[3]; 500 mg kg-1 i.v. weekly x 2
  maximum weight loss at MTD: approximately 10%
  toxic deaths at MTD: No toxic deaths occurred
[3]; DOX-GA3 500 mg kg-1 x 2 vs DOX 8 mg kg-1 x 2
  molar amount that could be administered at an equitoxic dose, compared with parent drug: 38 fold
[3]; i.v. weekly x 2, OVCAR-3-bearing mice
  MTD: 500 mg/kg
[4]
  times less capable of inhibiting cell growth than DOX: more than 100 times
  IC50: 22 µM
[5]
  Km: 1100 µM
  Vmax: 25.0 μmol min^–1mg^–1
DOX at MTD, prodrug at half of MTD
  tumour AUC of DOX, fold higher after DOX-GA3 than after DOX: 10 fold
DOX-GA3 250 mg kg-1 i.v. vs DOX 8 mg kg-1 i.v.
  times lower peak plasma concentration of DOX than after DOX: 7.6 times
DOX-GA3 250 mg kg-1 i.v., t = 1 min
  prodrug peak concentration in plasma: 1370 nmol/mL
DOX-GA3 250 mg kg-1 i.v., t = 30 min
  peak of DOX-GA3 in OVCAR-3 tumour tissue: 44.0 nmol/g
[9]
  fold higher DOX peak concentration in tumour than after DOX: ~5 fold
  fold lower peak DOX concentration in normal tissues (heart) than after DOX: up to 5 fold
After DOX 8 mg kg-1 (t = 1 min) or DOX-GA3 250 mg kg-1 (t = 2 h) i.v.
  DOX peak concentration in OVCAR-3 tumour tissue: 9.57 nmol/g
[10]
  DOX peak concentration in heart: 3.27 nmol/g
  DOX peak concentration in kidney: 70.8 nmol/g
  DOX peak concentration in liver: 14.2 nmol/g
  DOX peak concentration in plasma: 2.17 nmol/mL
Tumour vs heart
  drug targeting index (DTI), heart tissue: 31.4
Tumour vs plasma (surrogate for bone marrow)
  drug targeting index (DTI), plasma: 81.4
tumour-bearing animals, DOX-GA3 250 mg kg-1
  ratio of drug/prodrug in plasma: 0.002
[6]
  drug/prodrug ratio in plasma: 0.001

## O=C(O)[C@H]1O[C@@H](Oc2ccc([N+](=O)[O-])cc2)[C@H](O)[C@@H](O)[C@@H]1O [4-nitrophenyl-glucuronide]
[7]
  Km: 1300 µM

## O.O=C(O)[C@@H](O)[C@H]1OC(=O)[C@H](O)[C@H]1O [Saccharolactone, D-glucaric acid-1,4-lactone monohydrate]
[8]
  activity of the enzyme abolished: > 99%

## COc1cccc2c1C(=O)c1c(O)c3c(c(O)c1C2=O)C[C@@](O)(C(=O)CO)C[C@@H]3O[C@H]1C[C@H](N)[C@H](O)[C@H](C)O1 [DOX, Doxorubicin]
[2]; larger tumours (mean 400 mm3)
  GI % (maximum growth inhibition): 52%
[2]; larger tumours
  TD14 (tumour volume doubling time from a relative volume of 1 to 4): 21.5 days
[2]; small tumours (mean 125 mm3)
  GI % (maximum growth inhibition): 56%
[2]; small tumours
  TD14 (tumour volume doubling time from a relative volume of 1 to 4): 11.5 days
[4]; Homo sapiens
  IC50: 0.12 µM
nude, mouse, in vivo
  heart AUC of DOX, fold higher after DOX than after prodrug: 3.1 fold
  kidney AUC of DOX, times lower after DOX than after prodrug: 2.0 times
  liver AUC of DOX, fold higher after DOX than after prodrug: 1.8 fold
